Data taken from patent US9757404B2, “Combination comprising an omega-3 fatty acid composition and an SGLT2 inhibitor” (AstraZeneca AB, priority 2014, dated 2017).

Key:
[1] = tested on: VCU (Virginia Commonwealth University) NASH mouse model; experiment: VCU NASH mouse model, 4 weeks treatment, liver histology (Example 4); type: in vivo; settings: VCU NASH mice, 4 weeks daily gavage; dapagliflozin 1 mg/kg/d, Epanova 600 mg/kg/d
Method: A further pre-clinical mouse study was carried out according to the Experimental plan described below:
Model: VCU (Virginia Commonwealth University) NASH mouse model; inbred C57bI6J/×129SI/SvlmJ given high fat, cholesterol, fructose and glucose diet for 16 weeks before starting pharmacological treatment.
Treatment: drugs will be administered by daily gavage. Gavage volume will not exceed 3 mL/Kg. vehicles will be olive oil and water. Epanova and dapagliflozin will be administered by daily gavage in one syringe.
Run-in: 16 weeks in high fat, cholesterol, fructose and glucose diet one week with vehicle gavage.
T=0 weeks: the mice will be matched based on body weight. The mice will be divided into 4 groups of 12 animals. Vehicle gavage for one week before commencing active treatment for 4 weeks.

diabetic population = settings: cited from earlier work
human SGLT2 (hSGLT2) = human SGLT2 (hSGLT2) (Homo sapiens, UniProt P31639); settings: stated property, no value given; cited from earlier work
two mouse models of NASH = experiment: Overall summary of the two pre-clinical NASH mouse studies; type: in vivo
Description: We have investigated the effect of Epanova, dapagliflozin and the combination of the two components in two pre-clinical studies and a human clinical study, described in the Examples herein.
In the NASH mouse studies included in the present application, no changes in body weight, glucose or insulin levels or liver fat were observed, however the NASH mouse models used were not diabetic, but were obese and insulin resistant.

[2] = tested on: diet-induced obese mouse model of fatty liver disease and NASH (DIO-NASH); experiment: Mouse DIO-NASH model, 6 weeks treatment, hepatic pathology score (Example 3); type: in vivo, C57Bl/6J male mice; settings: DIO-NASH mice; for NAFLD activity score, post-hoc test comparing the control group with the other groups (FIG. 1): Kruskal-Wallis p <0.01; for NAFLD activity score, post-hoc test comparing the control group with the other groups (FIG. 1) / fibrosis stage, Kruskal-Wallis test vs vehicle control (FIG. 2): p<0.05 regarded as significant; for fibrosis stage, Kruskal-Wallis test vs vehicle control (FIG. 2): p=0.4
Description: Effect of SGLT-2 Inhibitors and Epanova Alone or in Combination on Metabolic Parameters and Hepatic Pathology Score in a Mouse DIO-NASH Model
Determine the effect of 6 weeks treatment with the SGLT2 inhibitors dapagliflozin, ipragliflozin and canagliflozin and the Omega-3 compound Epanova alone or in combination on NAFLD Activity Score (NAS) including fibrosis stage (post versus pre-treatment) in a diet-induced obese mouse model of fatty liver disease and NASH (DIO-NASH).
At 5 weeks of age, C57Bl/6J male mice are purchased from JanVier, France. During the acclimatization and diet-induction period, the mice are group housed five per cage under a 12:12 light dark cycle (lights on from 0400-1600 h) at controlled temperature conditions (22±1° C.; 50±10% relative humidity). Throughout the study period, the mice have ad libitum access to NASH diet (DIO-NASH) (D09100301, Research Diet) (40% fat (18% trans-fat)), 40% carbohydrates (20% fructose) and 2% cholesterol). The animals are kept on the diet for 28 weeks before experimentation. In addition, a sub-set of animals are given normal chow (Altromin 1324, Brogaarden) to be included as a lean control group (LEAN-CHOW). During post-OP recovery and study period, animals will be single-housed. BW will be recorded once daily during the study period. 24 h food and water intake will be recorded once weekly during the study period.
During the DIO-NASH diet-induction period, BW will be monitored once monthly. After 25 weeks of diet-induction, a liver biopsy will be obtained for hepatic progression of fibrosis and steatosis evaluated by histochemical analysis, and subsequently NAFLD Activity Score including fibrosis stage and optional gene expression analysis (see below). At day −6, animals are stratified into treatment groups according to levels of fibrosis (% collagen) followed by randomization based on 1) liver fibrosis and 2) BW. In addition, liver steatosis (% lipid) will be analyzed. At day −5, animals are EchoMRI scanned for body composition analysis.
Dosing volume is 5-20 ml/kg (TBD). Route of administration is per oral (PO) dosing by gavage. Dosing frequency will be once daily (QD). Day 0 is the first day of dosing. Animals are dosed with compound(s) and vehicle between 2-4 PM. Animals are dosed for 42 days. Last dose will be administered the day before termination (study day 41).
A liver pre-biopsy and terminal liver tissue from the left lateral lobe will be collected for NAS and assessment of fibrosis stage by use of clinical criteria outlined by Kleiner and colleagues (Design and validation of a histological scoring system for nonalcoholic fatty liver disease, Kleiner et al, Hepatology 41; 2005). The NAS is the sum of steatosis, lobular inflammation and hepatocellular ballooning scores:
To assess hepatic steatosis, ballooning degeneration, fibrosis and inflammation sections are stained with H&E, Sirius Red, CK18 (ballooning) and Galectin-3 (macrophages), respectively) followed by analysis with Visiomorph software (Visiopharm, Copenhagen, Denmark). Biopsy assessment of hepatic steatosis, fibrosis or inflammation will be described as percentage of total area using a protocol designed for the specific purpose.
Results are presented as mean±SEM (standard error of the mean) unless otherwise stated. Statistical evaluation of the data is carried out using Student's unpaired t-test or two-way ANOVA for comparison of LEAN-CHOW control versus DIO-NASH Vehicle. For comparison of DIO-NASH groups, one-way and two-way ANOVA are being applied where appropriate. Post-hoc analysis (Dunnett/Bonferroni) in cases with statistical significance is performed (p<0.05 considered significant).

[3] = 6 weeks QD PO, dapagliflozin 1 mg/kg, Epanova 600 mg/kg, vs vehicle

human SGLT2 (hSGLT2), sequence (P31639 whole entry): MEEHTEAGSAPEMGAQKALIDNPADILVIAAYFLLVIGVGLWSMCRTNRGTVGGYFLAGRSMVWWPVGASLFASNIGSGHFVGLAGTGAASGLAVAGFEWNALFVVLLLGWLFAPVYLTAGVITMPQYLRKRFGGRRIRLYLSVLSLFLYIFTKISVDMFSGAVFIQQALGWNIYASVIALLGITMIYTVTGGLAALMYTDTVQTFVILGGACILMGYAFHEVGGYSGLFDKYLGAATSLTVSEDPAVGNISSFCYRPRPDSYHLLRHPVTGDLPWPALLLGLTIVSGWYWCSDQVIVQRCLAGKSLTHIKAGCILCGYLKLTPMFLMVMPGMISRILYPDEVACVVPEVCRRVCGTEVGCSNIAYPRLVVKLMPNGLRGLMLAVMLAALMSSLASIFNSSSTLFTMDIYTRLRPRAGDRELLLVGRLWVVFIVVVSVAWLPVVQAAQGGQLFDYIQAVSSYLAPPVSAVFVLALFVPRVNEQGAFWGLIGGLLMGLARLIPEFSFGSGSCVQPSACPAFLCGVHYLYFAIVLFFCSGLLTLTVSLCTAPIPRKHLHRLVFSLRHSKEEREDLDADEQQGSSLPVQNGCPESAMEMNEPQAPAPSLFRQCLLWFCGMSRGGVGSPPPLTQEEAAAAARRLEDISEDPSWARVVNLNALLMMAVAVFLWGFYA

SMILES	overall effect on histology (NAFLD Activity Score, fibrosis stage) [1]	liver fat content (diabetic population; diabetic population / diabetic patients)	body fat content (diabetic population; published studies (Kabir et al; Bolinder et al))	selectivity for SGLT2 relative to SGLT1 (human SGLT2 (hSGLT2))	effect of treatment on NASH (two mouse models of NASH)	NAFLD activity scores at the end of the study (primary effect variable) [2, 3]	fibrosis stage at the end of the study (primary effect variable) [2, 3]	fibrosis, comparing baseline and end-of study biopsies ([2]; 6 weeks QD PO, post versus pre-treatment)	NAFLD activity score, post-hoc test comparing the control group with the other groups (FIG. 1) [2]	fibrosis stage, Kruskal-Wallis test vs vehicle control (FIG. 2) [2]
CCOc1ccc(Cc2cc([C@@H]3O[C@H](CO)[C@@H](O)[C@H](O)[C@H]3O)ccc2Cl)cc1 [Dapagliflozin, dapagliflozin]	no effect	tend to reduce liver fat content	reduce body fat content	High selectivity for SGLT2	did not show any effect	No effects	No effects	reduced fibrosis	not significant	non-significant
OC[C@H]1O[C@@H](c2ccc(F)c(Cc3cc4ccccc4s3)c2)[C@H](O)[C@@H](O)[C@@H]1O [Ipragliflozin, ipragliflozin]	–	–	–	–	–	–	–	–	not significant	non-significant
Cc1ccc([C@@H]2O[C@H](CO)[C@@H](O)[C@H](O)[C@H]2O)cc1Cc1ccc(-c2ccc(F)cc2)s1 [Canagliflozin, canagliflozin]	–	–	–	–	–	–	–	–	not significant	non-significant
